Data reported in patent US10168342B2, “Lipid probes and uses thereof” (THE SCRIPPS RESEARCH INSTITUTE, priority 2015, dated 2019).
Read-outs that look alike come from different tables or passages of the source.

Experiments:
[1] = target: T1, AEA-DA lipid probe targets in Neuro2a cells (Mus musculus, UniProt Q6PD26)
T1 sequence (Q6PD26 1-555): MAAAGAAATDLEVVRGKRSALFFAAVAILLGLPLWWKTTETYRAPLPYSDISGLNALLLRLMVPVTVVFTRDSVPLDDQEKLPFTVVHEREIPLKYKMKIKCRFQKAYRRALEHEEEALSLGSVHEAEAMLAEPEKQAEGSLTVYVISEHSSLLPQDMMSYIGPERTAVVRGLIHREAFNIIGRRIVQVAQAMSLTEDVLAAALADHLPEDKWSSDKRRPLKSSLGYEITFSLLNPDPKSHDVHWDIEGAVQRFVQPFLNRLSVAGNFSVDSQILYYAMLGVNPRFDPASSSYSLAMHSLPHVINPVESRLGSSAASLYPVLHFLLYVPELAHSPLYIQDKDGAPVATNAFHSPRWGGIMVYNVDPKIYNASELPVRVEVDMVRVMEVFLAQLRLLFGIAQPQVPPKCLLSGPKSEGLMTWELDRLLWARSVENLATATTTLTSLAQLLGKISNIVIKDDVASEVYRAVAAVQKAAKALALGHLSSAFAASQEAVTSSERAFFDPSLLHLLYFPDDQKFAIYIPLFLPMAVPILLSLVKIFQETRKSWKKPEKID

[2] = target: T2, AEA-DA lipid probe targets in Neuro2a cells (Mus musculus, UniProt Q3U9G9)
T2 sequence (Q3U9G9 1-626): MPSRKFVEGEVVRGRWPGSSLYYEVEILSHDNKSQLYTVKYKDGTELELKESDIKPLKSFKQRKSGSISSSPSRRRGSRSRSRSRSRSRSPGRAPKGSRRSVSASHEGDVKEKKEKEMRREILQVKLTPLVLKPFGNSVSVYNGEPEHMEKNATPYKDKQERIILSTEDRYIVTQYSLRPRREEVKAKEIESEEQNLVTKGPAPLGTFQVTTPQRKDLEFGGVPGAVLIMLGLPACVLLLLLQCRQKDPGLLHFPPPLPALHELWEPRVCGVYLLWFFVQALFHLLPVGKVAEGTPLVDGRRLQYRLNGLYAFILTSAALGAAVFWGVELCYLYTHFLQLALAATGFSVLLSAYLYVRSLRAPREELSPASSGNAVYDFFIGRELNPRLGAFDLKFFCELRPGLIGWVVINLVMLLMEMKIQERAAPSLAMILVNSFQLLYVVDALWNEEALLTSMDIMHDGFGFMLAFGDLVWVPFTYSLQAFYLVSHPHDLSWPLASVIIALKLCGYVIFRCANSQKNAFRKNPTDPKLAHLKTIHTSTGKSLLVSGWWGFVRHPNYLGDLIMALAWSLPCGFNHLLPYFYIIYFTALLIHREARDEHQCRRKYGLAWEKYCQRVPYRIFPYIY

[3] = target: AEA-DA lipid probe targets in Neuro2a cells (Mus musculus, UniProt Q8BG32)
Chain of AEA-DA lipid probe targets in Neuro2a cells (Mus musculus, UniProt Q8BG32) (Q8BG32 whole entry): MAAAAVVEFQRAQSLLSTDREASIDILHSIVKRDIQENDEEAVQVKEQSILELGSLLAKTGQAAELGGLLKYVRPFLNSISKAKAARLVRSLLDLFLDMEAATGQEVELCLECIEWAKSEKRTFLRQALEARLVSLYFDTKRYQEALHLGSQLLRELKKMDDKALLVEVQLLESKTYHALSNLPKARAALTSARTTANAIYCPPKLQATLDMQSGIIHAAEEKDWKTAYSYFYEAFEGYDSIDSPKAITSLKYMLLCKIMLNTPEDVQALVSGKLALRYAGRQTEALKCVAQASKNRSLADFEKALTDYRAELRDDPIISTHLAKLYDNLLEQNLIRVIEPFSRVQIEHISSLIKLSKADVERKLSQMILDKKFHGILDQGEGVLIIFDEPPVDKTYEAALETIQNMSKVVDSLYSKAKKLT

[4] = target: T3, AEA-DA lipid probe targets in Neuro2a cells (Mus musculus, UniProt Q3V009)
T3 sequence (Q3V009 25-227): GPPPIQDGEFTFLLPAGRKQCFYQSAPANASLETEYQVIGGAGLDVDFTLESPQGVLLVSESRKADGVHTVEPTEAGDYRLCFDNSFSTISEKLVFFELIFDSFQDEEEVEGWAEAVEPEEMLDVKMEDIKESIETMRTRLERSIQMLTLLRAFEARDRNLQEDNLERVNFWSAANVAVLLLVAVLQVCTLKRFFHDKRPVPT

[5] = target: T4, AEA-DA lipid probe targets in Neuro2a cells (Mus musculus, UniProt Q9ES97)
T4 sequence (Q9ES97 1-964): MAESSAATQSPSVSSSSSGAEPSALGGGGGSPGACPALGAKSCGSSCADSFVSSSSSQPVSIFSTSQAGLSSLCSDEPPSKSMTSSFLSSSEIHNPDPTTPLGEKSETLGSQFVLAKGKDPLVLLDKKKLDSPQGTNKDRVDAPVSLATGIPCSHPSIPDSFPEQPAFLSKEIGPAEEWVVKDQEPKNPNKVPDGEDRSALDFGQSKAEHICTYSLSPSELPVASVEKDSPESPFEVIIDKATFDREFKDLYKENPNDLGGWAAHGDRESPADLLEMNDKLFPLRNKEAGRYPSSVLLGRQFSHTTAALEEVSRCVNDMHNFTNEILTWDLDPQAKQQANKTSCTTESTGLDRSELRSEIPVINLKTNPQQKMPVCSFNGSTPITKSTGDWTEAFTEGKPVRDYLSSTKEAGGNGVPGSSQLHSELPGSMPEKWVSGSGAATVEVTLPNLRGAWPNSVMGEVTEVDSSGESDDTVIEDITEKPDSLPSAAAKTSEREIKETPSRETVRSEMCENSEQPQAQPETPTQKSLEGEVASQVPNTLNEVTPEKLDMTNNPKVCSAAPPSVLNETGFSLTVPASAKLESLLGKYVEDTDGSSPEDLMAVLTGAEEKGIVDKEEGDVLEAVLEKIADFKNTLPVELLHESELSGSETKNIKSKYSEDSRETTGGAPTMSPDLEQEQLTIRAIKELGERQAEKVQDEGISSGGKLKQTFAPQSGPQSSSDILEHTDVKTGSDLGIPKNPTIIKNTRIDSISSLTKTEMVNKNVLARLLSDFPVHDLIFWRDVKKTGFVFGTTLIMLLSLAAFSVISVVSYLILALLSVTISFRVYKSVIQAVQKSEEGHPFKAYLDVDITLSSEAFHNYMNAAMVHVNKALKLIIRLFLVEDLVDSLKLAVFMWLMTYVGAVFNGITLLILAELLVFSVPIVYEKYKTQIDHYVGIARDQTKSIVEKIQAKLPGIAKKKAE

[6] = target: T5, AEA-DA lipid probe targets in Neuro2a cells (Mus musculus, UniProt Q8BGC4)
T5 sequence (Q8BGC4 1-377): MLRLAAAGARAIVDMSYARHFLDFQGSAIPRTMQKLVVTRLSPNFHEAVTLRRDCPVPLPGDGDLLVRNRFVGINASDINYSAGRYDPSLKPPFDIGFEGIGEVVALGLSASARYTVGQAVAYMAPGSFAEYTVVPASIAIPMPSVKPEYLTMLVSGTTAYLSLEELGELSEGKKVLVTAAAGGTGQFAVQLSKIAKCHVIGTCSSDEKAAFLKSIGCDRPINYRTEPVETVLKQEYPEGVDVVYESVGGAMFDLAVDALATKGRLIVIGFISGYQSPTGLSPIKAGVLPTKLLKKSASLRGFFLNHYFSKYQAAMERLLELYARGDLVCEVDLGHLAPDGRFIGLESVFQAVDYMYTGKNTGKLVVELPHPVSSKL

Structure (SMILES) | SILAC ratio Pigs ([1]; competitor 25 μM) | SILAC ratio, Lbr ([2]; competitor 25 μM) | SILAC ratio Psmd11 ([3]; competitor 25 μM) | SILAC ratio, Tmed1 ([4]; competitor 25 μM) | SILAC ratio, Rtn3 ([5]; competitor 25 μM) | SILAC ratio, Zadh2 ([6]; competitor 25 μM) | further results
O=C(/C=C/c1cccnc1)NCCCCC1CCN(C(=O)c2ccccc2)CC1 [FK-866, reference compound] | 1.3 | 1.0 | 1.3 | 1.3 | 1.1 | 12.6 | –
CCCCC/C=C\C/C=C\C/C=C\C/C=C\CCCC(=O)NCCO [AEA, anandamide, reference compound] | – | – | – | – | – | – | SILAC ratio Pigs ([1]; competitor 200 μM): 1.6; SILAC ratio, Lbr ([2]; competitor 200 μM): 2.0; SILAC ratio Psmd11 ([3]; competitor 200 μM): 1.2; SILAC ratio, Tmed1 ([4]; competitor 200 μM): 2.1; SILAC ratio, Rtn3 ([5]; competitor 200 μM): 2.7; SILAC ratio, Zadh2 ([6]; competitor 200 μM): 4.8
CN1CCN(C(=O)c2c(-c3ccccc3)c3cc([N+](=O)[O-])ccc3n2C)CC1 [KML110, (1-Methyl-5-nitro-3-phenyl-1H-indol-2-yl)(4-methylpiperazin-1-yl)methanone] | 1.2 | 1.2 | 1.3 | 1.6 | 1.3 | 1.5 | –
C=CCN(C)CCCCCCOc1ccc(C(=O)c2ccc(Br)cc2)c(F)c1 [Ro 48-8071, reference compound] | 1.1 | 1.9 | 0.9 | 1.2 | 1.2 | 1.0 | –
CN1CCN(C(=O)c2[nH]c3ccc([N+](=O)[O-])cc3c2-c2ccccc2)CC1 [MJN228, (4-Methylpiperazin-1-yl)(5-nitro-3-phenyl-1H-indol-2-yl)methanone] | 1.6 | 1.3 | 1.3 | 1.6 | 1.4 | 1.5 | SILAC ratio Pigs ([1]; competitor 10 μM): 1.3; SILAC ratio Pigs ([1]; competitor 50 μM): 1.7; SILAC ratio Pigs ([1]; competitor 100 μM): 2.0; SILAC ratio, Lbr ([2]; competitor 10 μM): 1.1; SILAC ratio, Lbr ([2]; competitor 50 μM): 1.5; SILAC ratio, Lbr ([2]; competitor 100 μM): 1.8; SILAC ratio, Tmed1 ([4]; competitor 10 μM): 1.1; SILAC ratio, Tmed1 ([4]; competitor 50 μM): 2.1; SILAC ratio, Tmed1 ([4]; competitor 100 μM): 2.2; SILAC ratio, Rtn3 ([5]; competitor 10 μM): 1.2; SILAC ratio, Rtn3 ([5]; competitor 50 μM): 1.4; SILAC ratio, Rtn3 ([5]; competitor 100 μM): 1.7; SILAC ratio, Zadh2 ([6]; competitor 10 μM): 1.4; SILAC ratio, Zadh2 ([6]; competitor 50 μM): 2.3; SILAC ratio, Zadh2 ([6]; competitor 100 μM): 6.0
